Measured values from the supplement of paper PMC9938120.

Key:
Test in all cases: drug sensitivity score (DSS3, normalised partial AUC of % inhibition dose-response) (DSS (score)); higher = more sensitive (stronger inhibition of viability); extreme values may be limits of the assay
FMOC03 = patient-derived mucinous ovarian cancer cells; settings: 72 h; library: FO5A; assay format: 2D, 384-well, CellTiter-Glo
Procedure, shortened: (§1)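 Cells were dispensed onto 384-well flat clear-bottom plates already holding compounds at five concentrations over a 10,000-fold range, using patient-derived ovarian cancer cells at passage under 10. Incubation lasted 72 h at 37 °C in 5% CO2, after which CellTiter-Glo viability data were processed in Breeze. Higher drug sensitivity scores, each a partial area under the percent-inhibition dose-response curve divided by the log of the upper asymptote, mean more sensitive cells.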

FMOC28 = patient-derived low-grade serous ovarian cancer cells; settings: 72 h; library: FO5A; assay format: 2D, 384-well, CellTiter-Glo
Procedure, shortened: as §1

FMOC22 = patient-derived mucinous ovarian cancer cells; settings: 72 h; library: FO5A; assay format: 2D, 384-well, CellTiter-Glo
Procedure, shortened: as §1

FMOC02_3 = patient-derived low-grade serous ovarian cancer cells; settings: 72 h; library: FO5A; assay format: 2D, 384-well, CellTiter-Glo
Procedure, shortened: as §1

FMOC17 = patient-derived low-grade serous ovarian cancer cells; settings: 72 h; library: FO5A; assay format: 2D, 384-well, CellTiter-Glo
Procedure, shortened: as §1

FMOC04 = patient-derived high-grade serous ovarian cancer cells; settings: 72 h; library: FO5A; assay format: 2D, 384-well, CellTiter-Glo
Procedure, shortened: as §1

FMOC11 = patient-derived high-grade serous ovarian cancer cells; settings: 72 h; library: FO5A; assay format: 2D, 384-well, CellTiter-Glo
Procedure, shortened: as §1

FMOC27 = patient-derived low-grade serous ovarian cancer cells; settings: 72 h; library: FO5A; assay format: 2D, 384-well, CellTiter-Glo
Procedure, shortened: as §1

FMOC14 = patient-derived high-grade serous ovarian cancer cells; settings: 72 h; library: FO5A; assay format: 2D, 384-well, CellTiter-Glo
Procedure, shortened: as §1

FMOC25_2 = patient-derived low-grade serous ovarian cancer cells; settings: 72 h; library: FO5A; assay format: 2D, 384-well, CellTiter-Glo
Procedure, shortened: as §1

FMOC02_1 = patient-derived low-grade serous ovarian cancer cells; settings: 72 h; library: FO5A; assay format: 2D, 384-well, CellTiter-Glo
Procedure, shortened: as §1

FMOC02_2 = patient-derived low-grade serous ovarian cancer cells; settings: 72 h; library: FO5A; assay format: 2D, 384-well, CellTiter-Glo
Procedure, shortened: as §1

FMOC06 = patient-derived mucinous ovarian cancer cells; settings: 72 h; library: FO5A; assay format: 2D, 384-well, CellTiter-Glo
Procedure, shortened: as §1

FMOC09 = patient-derived high-grade serous ovarian cancer cells; settings: 72 h; library: FO5A; assay format: 2D, 384-well, CellTiter-Glo
Procedure, shortened: as §1

FMOC24 = patient-derived high-grade serous ovarian cancer cells; settings: 72 h; library: FO5A; assay format: 2D, 384-well, CellTiter-Glo
Procedure, shortened: as §1

FMOC25_1 = patient-derived low-grade serous ovarian cancer cells; settings: 72 h; library: FO4B; assay format: 2D, 384-well, CellTiter-Glo
Procedure, shortened: as §1

| SMILES | drug sensitivity score (FMOC03) | drug sensitivity score (FMOC28) | drug sensitivity score (FMOC22) | drug sensitivity score (FMOC02_3) | drug sensitivity score (FMOC17) | drug sensitivity score (FMOC04) | drug sensitivity score (FMOC11) | drug sensitivity score (FMOC27) | drug sensitivity score (FMOC14) | drug sensitivity score (FMOC25_2) | drug sensitivity score (FMOC02_1) | drug sensitivity score (FMOC02_2) | drug sensitivity score (FMOC06) | drug sensitivity score (FMOC09) | drug sensitivity score (FMOC24) | drug sensitivity score (FMOC25_1) |
| --- | --- | --- | --- | --- | --- | --- | --- | --- | --- | --- | --- | --- | --- | --- | --- | --- |
| COc1ccc(COc2cc3oc(=O)c4cc(C(C)O)ccc4c3cc2OC)cc1 (stereo unspecified) [Palomid-529] | 0 | 1.4 | 0 | 0 | 0 | 0 | 0.4 | 0 | 0 | 0.1 | 0 | 2.2 | 0 | 0.4 | 0 | 0 |
| O=C(c1cccc(Cl)c1F)N1CCN(Cc2cccc(Nc3nccs3)n2)CC1 [MK-8745] | 1.3 | 5.8 | 1.8 | 5.7 | 2.1 | 1.3 | 4 | 0 | 0.2 | 4 | 7.1 | 6.1 | 0 | 0.2 | 0.2 | 0 |
| O=C(O)c1ccc(O)c2ncccc12 [IOX-1] | 3 | 0 | 1.6 | 0 | 0 | 0 | 1.6 | 0 | 1.9 | 0 | 0 | 0.2 | 1 | 0 | 0 | 0 |
| CCC1(c2ccc(N)cc2)CCC(=O)NC1=O (stereo unspecified) [Aminoglutethimide] | 0 | 0 | 0 | 0.6 | 0.1 | 0 | 0 | 0 | 0 | 0 | 0 | 0.1 | 0 | 0 | 1.05 | 0.4 |
| CCN1CCN(Cc2ccc(Nc3ncc(F)c(-c4cc(F)c5nc(C)n(C(C)C)c5c4)n3)nc2)CC1 [Abemaciclib] | 2.3 | 0 | 0 | 11.6 | 3.4 | 0.35 | 0.8 | 3.2 | 0.1 | 7.5 | 7 | 6.6 | 4 | 2.1 | 1.7 | 0.1 |
| Nc1nc(OCc2cc(Br)cs2)c2[nH]cnc2n1 [Lomeguatrib] | 0 | 2.6 | 0 | 0.4 | 0 | 0 | 0 | 0 | 0 | 1.4 | 0 | 0.8 | 0 | 0 | 0 | 0 |
| C/C(=C\c1csc(C)n1)[C@@H]1C[C@@H]2O[C@]2(C)CCC[C@H](C)[C@H](O)[C@@H](C)C(=O)C(C)(C)[C@@H](O)CC(=O)N1 [Ixabepilone] | 3 | 0 | 2.3 | 2.6 | 4.4 | 1.85 | 3.1 | 0.9 | 0 | 2.5 | 4.1 | 1.7 | 2.7 | 1.7 | 0 | 1.1 |
| C[C@H]1C[C@@H]2[C@H]([C@@H](O)C[C@@]3(C)[C@H]2CC[C@]3(O)C(=O)CO)[C@@]2(C)C=CC(=O)C=C12 [Methylprednisolone] | 0 | 0 | 0 | 0 | 0 | 0 | 0.6 | 0 | 0 | 0 | 0 | 0 | 0.1 | 0.1 | 0 | 0 |
| O=C(NC[C@H](O)CN1CCc2ccccc2C1)c1cc(NC2COC2)ncn1 | 0 | 0 | 1.8 | 1.3 | 0 | 0 | 0 | 1.1 | 0 | 0.2 | 0 | 0 | 0 | 0.3 | 0.5 | 1 |
| Cc1c(N)nc([C@H](CC(N)=O)NC[C@H](N)C(N)=O)nc1C(=O)N[C@H](C(=O)N[C@H](C)[C@@H](O)[C@H](C)C(=O)N[C@H](C(=O)NCCc1nc(-c2nc(C(=O)NCCC[S+](C)C)cs2)cs1)[C@@H](C)O)[C@@H](OC1OC(CO)C(O)C(O)C1OC1OC(CO)C(O)C(OC(N)=O)C1O)c1cnc[nH]1 (stereo partly specified) [Bleomycin] | 0.7 | 2.9 | 0.8 | 8.8 | 3.4 | 0 | 3.4 | 2.4 | 0.1 | 3.2 | 3.1 | 4.3 | 3.1 | 3.2 | 5.65 | 9 |
| O[C@H]1CC[C@H](Nc2ncc3nc(Nc4c(F)cc(F)cc4F)n([C@H]4CCOC4)c3n2)CC1 [Tanzisertib] | 0 | 0 | 0.1 | 1.1 | 0.8 | 0 | 0 | 0.1 | 0 | 0 | 2.3 | 1.6 | 0 | 0 | 1.45 | 0 |
